Reference: ChEMBL document CHEMBL3792365, “Dioxol and dihydrodioxin analogs of 2- and 3-phenylacetonitriles as potent anti-cancer agents with nanomolar activity against a variety of human cancer cells” (2016)

Assays:
Assay type in all cases: functional
[1] = Growth inhibition of human SF539 cells at 10 uM after 48 hrs by sulforhodamine B assay; conditions: SF-539, 48 h, values are per cent of control
[2] = Growth inhibition of human HCT116 cells at 10 uM after 48 hrs by sulforhodamine B assay; conditions: HCT-116, 48 h, values are per cent of control
[3] = Growth inhibition of human BT549 cells at 10 uM after 48 hrs by sulforhodamine B assay; conditions: BT-549, 48 h, values are per cent of control
[4] = test system: K562; assay: Growth inhibition of human K562 cells at 10 uM after 48 hrs by sulforhodamine B assay; conditions: K562, 48 h, values are per cent of control
[5] = test system: ACHN; assay: Growth inhibition of human ACHN cells at 10 uM after 48 hrs by sulforhodamine B assay; conditions: values are per cent of control
[6] = Growth inhibition of human NCI-ADR-RES cells at 10 uM after 48 hrs by sulforhodamine B assay; conditions: values are per cent of control
[7] = test system: NCI-H522; assay: Growth inhibition of human NCI-H522 cells at 10 uM after 48 hrs by sulforhodamine B assay; conditions: NCI-H522, 48 h, values are per cent of control
[8] = test system: A549; assay: Growth inhibition of human A549/ATCC cells at 10 uM after 48 hrs by sulforhodamine B assay; conditions: A549, 48 h, values are per cent of control
[9] = test system: T47D; assay: Growth inhibition of human T47D cells at 10 uM after 48 hrs by sulforhodamine B assay; conditions: values are per cent of control
[10] = test system: MDA-MB-435; assay: Growth inhibition of human MDA-MB-435 cells at 10 uM after 48 hrs by sulforhodamine B assay; conditions: MDA-MB-435, 48 h, values are per cent of control
[11] = test system: SN12C; assay: Growth inhibition of human SN12C cells at 10 uM after 48 hrs by sulforhodamine B assay; conditions: values are per cent of control
[12] = Growth inhibition of human SF268 cells at 10 uM after 48 hrs by sulforhodamine B assay; conditions: SF-268, 48 h, values are per cent of control
[13] = test system: NCI-H322M; assay: Growth inhibition of human NCI-H322M cells at 10 uM after 48 hrs by sulforhodamine B assay; conditions: values are per cent of control
[14] = test system: MDA-MB-231; assay: Growth inhibition of human MDA-MB-231 cells at 10 uM after 48 hrs by sulforhodamine B assay; conditions: MDA-MB-231, 48 h, values are per cent of control
[15] = Growth inhibition of human HOP62 cells at 10 uM after 48 hrs by sulforhodamine B assay; conditions: HOP-62, 48 h, values are per cent of control
[16] = Growth inhibition of human SW620 cells at 10 uM after 48 hrs by sulforhodamine B assay; conditions: SW-620, 48 h, values are per cent of control
[17] = Growth inhibition of human SNB19 cells at 10 uM after 48 hrs by sulforhodamine B assay; conditions: SNB-19, 48 h, values are per cent of control
[18] = Growth inhibition of human DU145 cells at 10 uM after 48 hrs by sulforhodamine B assay; conditions: DU-145, 48 h, values are per cent of control
[19] = test system: 786-0; assay: Growth inhibition of human 786-0 cells at 10 uM after 48 hrs by sulforhodamine B assay; conditions: 786-0, 48 h, values are per cent of control
[20] = test system: SR; assay: Growth inhibition of human SR cells at 10 uM after 48 hrs by sulforhodamine B assay; conditions: values are per cent of control
[21] = Growth inhibition of human UACC62 cells at 10 uM after 48 hrs by sulforhodamine B assay; conditions: UACC-62, 48 h, values are per cent of control
[22] = Growth inhibition of human TK10 cells at 10 uM after 48 hrs by sulforhodamine B assay; conditions: TK-10, 48 h, values are per cent of control
[23] = test system: SK-MEL-2; assay: Growth inhibition of human SK-MEL-2 cells at 10 uM after 48 hrs by sulforhodamine B assay; conditions: SK-MEL-2, 48 h, values are per cent of control
[24] = Growth inhibition of human SNB75 cells at 10 uM after 48 hrs by sulforhodamine B assay; conditions: SNB-75, 48 h, values are per cent of control
[25] = Growth inhibition of human OVCAR4 cells at 10 uM after 48 hrs by sulforhodamine B assay; conditions: OVCAR-4, 48 h, values are per cent of control
[26] = Growth inhibition of human SKOV3 cells at 10 uM after 48 hrs by sulforhodamine B assay; conditions: SK-OV-3, 48 h, values are per cent of control
[27] = test system: MDA-MB-468; assay: Growth inhibition of human MDA-MB-468 cells at 10 uM after 48 hrs by sulforhodamine B assay; conditions: MDA-MB-468, 48 h, values are per cent of control
[28] = Growth inhibition of human COLO205 cells at 10 uM after 48 hrs by sulforhodamine B assay; conditions: COLO 205, 48 h, values are per cent of control
[29] = test system: HT-29; assay: Growth inhibition of human HT-29 cells at 10 uM after 48 hrs by sulforhodamine B assay; conditions: HT-29, 48 h, values are per cent of control
[30] = Growth inhibition of human RXF393 cells at 10 uM after 48 hrs by sulforhodamine B assay; conditions: RXF 393, 48 h, values are per cent of control
[31] = Growth inhibition of human Caki1 cells at 10 uM after 48 hrs by sulforhodamine B assay; conditions: CAKI-1, 48 h, values are per cent of control
[32] = test system: NCI-H226; assay: Growth inhibition of human NCI-H226 cells at 10 uM after 48 hrs by sulforhodamine B assay; conditions: NCI-H226, 48 h, values are per cent of control
[33] = test system: M14; assay: Growth inhibition of human M14 cells at 10 uM after 48 hrs by sulforhodamine B assay; conditions: M14, 48 h, values are per cent of control
[34] = test system: SK-MEL-5; assay: Growth inhibition of human SK-MEL-5 cells at 10 uM after 48 hrs by sulforhodamine B assay; conditions: SK-MEL-5, 48 h, values are per cent of control
[35] = Growth inhibition of human HCC2998 cells at 10 uM after 48 hrs by sulforhodamine B assay; conditions: HCC 2998, 48 h, values are per cent of control
[36] = Growth inhibition of human HCT15 cells at 10 uM after 48 hrs by sulforhodamine B assay; conditions: HCT-15, 48 h, values are per cent of control
[37] = test system: NCI-H460; assay: Growth inhibition of human NCI-H460 cells at 10 uM after 48 hrs by sulforhodamine B assay; conditions: NCI-H460, 48 h, values are per cent of control
[38] = test system: KM12; assay: Growth inhibition of human KM12 cells at 10 uM after 48 hrs by sulforhodamine B assay; conditions: KM12, 48 h, values are per cent of control
[39] = test system: SK-MEL-28; assay: Growth inhibition of human SK-MEL-28 cells at 10 uM after 48 hrs by sulforhodamine B assay; conditions: SK-MEL-28, 48 h, values are per cent of control
[40] = Growth inhibition of human IGROV1 cells at 10 uM after 48 hrs by sulforhodamine B assay; conditions: IGROV-1, 48 h, values are per cent of control

| SMILES | growth, % of control at 10 µM [1] [%] | growth, % of control at 10 µM [2] [%] | growth, % of control at 10 µM [3] [%] | growth, % of control at 10 µM [4] [%] | growth, % of control at 10 µM [5] [%] | growth, % of control at 10 µM [6] [%] | growth, % of control at 10 µM [7] [%] | growth, % of control at 10 µM [8] [%] | growth, % of control at 10 µM [9] [%] | growth, % of control at 10 µM [10] [%] | growth, % of control at 10 µM [11] [%] | growth, % of control at 10 µM [12] [%] | growth, % of control at 10 µM [13] [%] | growth, % of control at 10 µM [14] [%] | growth, % of control at 10 µM [15] [%] | growth, % of control at 10 µM [16] [%] | growth, % of control at 10 µM [17] [%] | growth, % of control at 10 µM [18] [%] | growth, % of control at 10 µM [19] [%] | growth, % of control at 10 µM [20] [%] | also measured |
| --- | --- | --- | --- | --- | --- | --- | --- | --- | --- | --- | --- | --- | --- | --- | --- | --- | --- | --- | --- | --- | --- |
| N#C/C(=C\c1cccnc1Cl)c1ccc2c(c1)OCO2 | 99.8 | 94 | 88.5 | 113 | 109 | 101 | 71.7 | 103 | 93.4 | 97.1 | 91.7 | 109 | 97 | 99.8 | 103 | 94.8 | 101 | 115 | 94 | 92.8 | growth, % of control at 10 µM [21]: 85.7%; growth, % of control at 10 µM [22]: 106%; growth, % of control at 10 µM [23]: 98.9%; growth, % of control at 10 µM [24]: 102%; growth, % of control at 10 µM [25]: 100%; growth, % of control at 10 µM [26]: 103%; growth, % of control at 10 µM [27]: 93.7%; growth, % of control at 10 µM [28]: 112%; growth, % of control at 10 µM [29]: 106%; growth, % of control at 10 µM [30]: 98.3%; growth, % of control at 10 µM [31]: 103%; growth, % of control at 10 µM [32]: 98.9%; growth, % of control at 10 µM [33]: 94.9%; growth, % of control at 10 µM [34]: 92.2%; growth, % of control at 10 µM [35]: 107%; growth, % of control at 10 µM [36]: 98.8%; growth, % of control at 10 µM [37]: 102%; growth, % of control at 10 µM [38]: 109%; growth, % of control at 10 µM [39]: 113%; growth, % of control at 10 µM [40]: 113% |
| COc1ccc(/C=C(\C#N)c2ccc3c(c2)OCO3)cc1OC | 103 | 105 | 91.8 | 94.8 | 111 | 102 | 94.5 | 96.6 | 88.7 | 96.1 | 103 | 99.5 | 96.8 | 106 | 97.6 | 107 | 105 | 104 | 103 | 83 | growth, % of control at 10 µM [21]: 114%; growth, % of control at 10 µM [22]: 96.5%; growth, % of control at 10 µM [23]: 102%; growth, % of control at 10 µM [24]: 87.5%; growth, % of control at 10 µM [25]: 110%; growth, % of control at 10 µM [26]: 105%; growth, % of control at 10 µM [27]: 104%; growth, % of control at 10 µM [28]: 106%; growth, % of control at 10 µM [29]: 106%; growth, % of control at 10 µM [30]: 111%; growth, % of control at 10 µM [31]: 102%; growth, % of control at 10 µM [32]: 114%; growth, % of control at 10 µM [33]: 106%; growth, % of control at 10 µM [34]: 103%; growth, % of control at 10 µM [35]: 106%; growth, % of control at 10 µM [36]: 99.8%; growth, % of control at 10 µM [37]: 106%; growth, % of control at 10 µM [38]: 96.2%; growth, % of control at 10 µM [39]: 116%; growth, % of control at 10 µM [40]: 96.9% |
| COc1cc(/C=C(\C#N)c2ccc3c(c2)OCO3)cc(OC)c1OC | 92.4 | 99.4 | 82.1 | 80.4 | 96 | 93.9 | 85.8 | 93.6 | 70.7 | 74.7 | 95.4 | 94.4 | 104 | 88.2 | 92.2 | 98.9 | 93.8 | 107 | 96.5 | 83.5 | growth, % of control at 10 µM [21]: 87.6%; growth, % of control at 10 µM [22]: 98.1%; growth, % of control at 10 µM [23]: 90.2%; growth, % of control at 10 µM [24]: 114%; growth, % of control at 10 µM [25]: 89.2%; growth, % of control at 10 µM [26]: 103%; growth, % of control at 10 µM [27]: 99.6%; growth, % of control at 10 µM [28]: 104%; growth, % of control at 10 µM [29]: 88.8%; growth, % of control at 10 µM [30]: 100%; growth, % of control at 10 µM [31]: 86.6%; growth, % of control at 10 µM [32]: 101%; growth, % of control at 10 µM [33]: 95%; growth, % of control at 10 µM [34]: 92.2%; growth, % of control at 10 µM [35]: 91.3%; growth, % of control at 10 µM [36]: 85.7%; growth, % of control at 10 µM [37]: 107%; growth, % of control at 10 µM [38]: 93.8%; growth, % of control at 10 µM [39]: 97.6%; growth, % of control at 10 µM [40]: 95.3% |
